Experimental data published in patent publication US20080269114A1, “Y4 Selective Receptor Agonists For Thereapeutic Interventions” (priority 2004, published 2008).

Legend:
human Y1 receptor = biological target: T1, human Y1 receptor (Homo sapiens, UniProt P25929); test: Human Y1 receptor potency assay (inositol phosphate turnover, COS-7 cells); type: cell-based; settings: relative to PP
T1 construct: expressed in transfected cells; host or cells: COS-7
T1 sequence (P25929 1-384): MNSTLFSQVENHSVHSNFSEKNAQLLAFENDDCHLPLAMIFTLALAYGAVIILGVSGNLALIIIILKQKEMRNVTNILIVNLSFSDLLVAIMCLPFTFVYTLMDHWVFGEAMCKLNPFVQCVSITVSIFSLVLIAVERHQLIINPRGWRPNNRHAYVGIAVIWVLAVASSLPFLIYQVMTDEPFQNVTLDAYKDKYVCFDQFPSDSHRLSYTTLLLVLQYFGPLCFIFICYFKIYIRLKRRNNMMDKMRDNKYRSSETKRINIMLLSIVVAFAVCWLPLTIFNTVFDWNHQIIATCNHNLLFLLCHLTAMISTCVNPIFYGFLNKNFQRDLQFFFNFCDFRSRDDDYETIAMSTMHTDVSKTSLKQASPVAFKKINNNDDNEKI
Procedure: Potency of the test compounds on the human Y2 receptor is determined by performing dose-response experiments in COS-7 cells transiently transfected with the human Y2 receptor as well as a promiscuous G protein, Gqi5 which ensures that the Y2 receptor couples through a Gq pathway leading to an increase in inositol phosphate turnover.
(§1) Cells are washed twice in buffer, 20 mM HEPES, pH 7.4, supplemented with 140 mM NaCl, 5 mM KCl, 1 mM MgSO4, 1 mM CaCl2, 10 mM glucose, 0.05% (w/v) bovine serum; and are incubated in 0.5 ml buffer supplemented with 10 mM LiCl at 37 C for 30 min. After stimulation with various concentrations of peptide for 45 min at 37 C, cells are extracted with 10% ice-cold perchloric acid followed by incubation on ice for 30 min. The resulting supernatants are neutralized with KOH in HEPES buffer, and the generated [3H]-inositol phosphate are purified on Bio-Rad AG 1-X8 anion-exchange resin and counted in a beta counter. Determinations are made in duplicates. EC50 values were calculated using a standard pharmacological data handling software, Prism 3.0 (graphPad Sofware, San Diego, USA).
Protocol as for the Y2 potency assay, except that human Y1-transformed COS-7 cells are used.

food intake = test: Effect of Y4 selective agonists on acute food intake in mice; type: in vivo, mice (ddy strain)
Procedure: . In FIG. 2 is shown the accumulated food intake of the mice during 8 hours. […] The 50% suppressive effect on food intake was observed also when this was measured during the first full hour.
Effect of Y4 Selective Agonists on Acute Food Intake in Mice
The ddy strain of mice were used, 34-37 g and 8-9 weeks of age (Japan SLC, Shizuuoka, Japan). The mice were individually house in a regulated environment (22 C, 55% humidity) in a 12-hour light-dark cycle with light on at 7 AM. Food and water were available ad libitum except just before experiments (see below). The mice were acclimatized to subcutaneous injections during the week before experiments started. Mice were used once each in the experiments. Just before administration the peptides were diluted in physiological saline and administered in 100 μL volume for subcutaneous administration. Results are expressed as mean±SE. Analysis of variance followed by Bonferroni's test were used to assess differences among groups.
Mice were deprived of food but with free access to water for 16 hours prior to the actual test and experiments were started at 10 AM on the following day. A standard diet was used (CLEA Japan, Inc., Tokyo, Japan) and food intake was measured by subtracting uneaten food from the initially premeausured food after administration and checking for food spillage.

human Y4 receptor = biological target: T2, human Y4 receptor (Homo sapiens, UniProt P50391); test: Human Y4 receptor potency assay (inositol phosphate turnover, COS-7 cells); type: cell-based; settings: relative to PP
T2 construct: expressed in transfected cells; host or cells: COS-7
T2 sequence (P50391 whole entry): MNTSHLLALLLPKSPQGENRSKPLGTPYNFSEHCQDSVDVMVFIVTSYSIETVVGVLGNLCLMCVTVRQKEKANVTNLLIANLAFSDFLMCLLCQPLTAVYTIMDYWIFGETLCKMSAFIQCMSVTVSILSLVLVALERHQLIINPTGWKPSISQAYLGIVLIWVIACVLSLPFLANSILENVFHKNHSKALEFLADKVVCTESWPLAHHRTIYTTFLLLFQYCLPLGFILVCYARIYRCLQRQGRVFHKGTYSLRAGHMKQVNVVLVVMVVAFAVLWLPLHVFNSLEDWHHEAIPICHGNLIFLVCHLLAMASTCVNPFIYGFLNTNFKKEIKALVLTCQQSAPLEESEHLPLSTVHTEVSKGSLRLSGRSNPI
Procedure: as §1, with “After” for “Cells are washed twice in buffer, 20 mM HEPES, pH 7.4, supplemented with 140 mM NaCl, 5 mM KCl, 1 mM MgSO4, 1 mM CaCl2, 10 mM glucose, 0.05% (w/v) bovine serum; and are incubated in 0.5 ml buffer supplemented with 10 mM LiCl at 37 C for 30 min. After”

| potency on the Y1 receptor lower than that of PP (human Y1 receptor) | potency on the Y4 receptor lower than that of PP (human Y4 receptor) | SMILES | period for which the suppressive effect on food intake was sustained (food intake; after the single subcutaneous injection) | suppressive effect on food intake (food intake; first full hour, single subcutaneous injection, 16 hours fasted mice) |
| --- | --- | --- | --- | --- |
| 3-4 fold | – | CC[C@H](C)[C@H](NC(=O)[C@H](Cc1ccc(O)cc1)NC(=O)[C@H](CCCNC(=N)N)NC(=O)[C@H](CCCNC(=N)N)NC(=O)[C@H](CC(C)C)NC(=O)[C@H](CC(=O)O)NC(=O)[C@H](C)NC(=O)[C@H](C)NC(=O)[C@H](Cc1ccc(O)cc1)NC(=O)[C@H](CCC(N)=O)NC(=O)[C@H](C)NC(=O)[C@H](CCSC)NC(=O)[C@H](CCC(N)=O)NC(=O)[C@H](CCC(=O)O)NC(=O)[C@@H]1CCCN1C(=O)[C@@H](NC(=O)[C@H](C)NC(=O)[C@H](CC(N)=O)NC(=O)[C@H](CC(=O)O)NC(=O)CNC(=O)[C@@H]1CCCN1C(=O)[C@H](Cc1ccc(O)cc1)NC(=O)[C@@H](NC(=O)[C@@H]1CCCN1C(=O)[C@H](CCC(=O)O)NC(=O)[C@H](CC(C)C)NC(=O)[C@@H]1CCCN1)C(C)C)[C@@H](C)O)C(=O)N[C@@H](CC(N)=O)C(=O)N[C@@H](CCSC)C(=O)N[C@@H](CC(C)C)C(=O)N[C@H](C(=O)N[C@@H](CCCNC(=N)N)C(=O)N1CCC[C@H]1C(=O)N[C@@H](CCCNC(=N)N)C(=O)N[C@@H](Cc1ccc(O)cc1)C(N)=O)[C@@H](C)O [PP2-36] | 8 h | 50% |
| – | 7 fold | CC[C@H](C)[C@H](NC(=O)[C@H]1CSSC[C@H](NC(=O)[C@H](C)N)C(=O)N[C@@H](CC(C)C)C(=O)N[C@@H](CCC(=O)O)C(=O)N2CCC[C@H]2C(=O)N[C@@H](C(C)C)C(=O)N[C@@H](Cc2ccc(O)cc2)C(=O)N2CCC[C@H]2C(=O)NCC(=O)N[C@@H](CC(=O)O)C(=O)N[C@@H](CC(N)=O)C(=O)N[C@@H](C)C(=O)N[C@@H]([C@@H](C)O)C(=O)N2CCC[C@H]2C(=O)N[C@@H](CCC(=O)O)C(=O)N[C@@H](CCC(N)=O)C(=O)N[C@@H](CCSC)C(=O)N[C@@H](C)C(=O)N[C@@H](CCC(N)=O)C(=O)N[C@@H](Cc2ccc(O)cc2)C(=O)N[C@@H](C)C(=O)N[C@@H](C)C(=O)N[C@@H](CC(=O)O)C(=O)N[C@@H](CC(C)C)C(=O)N[C@@H](CCCNC(=N)N)C(=O)N[C@@H](CCCNC(=N)N)C(=O)N1)C(=O)N[C@@H](CC(N)=O)C(=O)N[C@@H](CCSC)C(=O)N[C@@H](CC(C)C)C(=O)N[C@H](C(=O)N[C@@H](CCCNC(=N)N)C(=O)N1CCC[C@H]1C(=O)N[C@@H](CCCNC(=N)N)C(=O)N[C@@H](Cc1ccc(O)cc1)C(N)=O)[C@@H](C)O [[Cys2,D-Cys27]PP] | – | – |
